In PubChem BioAssay (NCI):
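At the GI50, growth is halved. TGI marks complete inhibition of growth.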

How the values were obtained:
Assay in all cases: NCI tumour cell line growth inhibition, 384-well format; in the data active = GI50 below about 0.43 µM; inactive = the rest
[1] = test system: NCI-H522 lung
[2] = test system: HOP-62 NSCLC
[3] = test system: EKVX NSCLC
[4] = test system: OVCAR-8 ovarian
[5] = test system: NCI/ADR-RES ovarian
[6] = test system: MDA-MB-468 breast
[7] = test system: SNB-75 CNS
[8] = test system: UACC-62 melanoma
[9] = test system: UO-31 renal
[10] = test system: MDA-MB-231 breast
[11] = test system: TK-10 renal
[12] = test system: 786-0 renal
[13] = test system: MOLT-4 leukemia
[14] = test system: SK-MEL-5 melanoma
[15] = test system: HS 578T breast
[16] = test system: CCRF-CEM leukemia
[17] = test system: ACHN renal
[18] = test system: NCI-H322M lung
[19] = test system: CAKI-1 renal
[20] = test system: IGROV1 ovarian
[21] = test system: OVCAR-3 ovarian
[22] = test system: BT-549 breast
[23] = test system: A549 NSCLC
[24] = test system: COLO 205 colon
[25] = test system: SK-MEL-2 melanoma
[26] = test system: SK-MEL-28 melanoma
[27] = test system: MCF7 breast
[28] = test system: HCT-15 colon
[29] = test system: M14 melanoma
[30] = test system: HOP-92 NSCLC
[31] = test system: HT29 colon
[32] = test system: MDA-MB-435 melanoma
[33] = test system: UACC-257 melanoma
[34] = test system: A498 renal
[35] = test system: SW-620 colon
[36] = test system: LOX IMVI melanoma
[37] = test system: MALME-3M melanoma
[38] = test system: SNB-19 CNS
[39] = test system: HL-60(TB) leukemia
[40] = test system: PC-3 prostate
[41] = test system: NCI-H460 NSCLC
[42] = test system: SN12C renal
[43] = test system: RPMI-8226 leukemia
[44] = test system: SF-268 CNS
[45] = test system: NCI-H226 lung
[46] = test system: U251 glioblastoma
[47] = test system: RXF 393 renal

CS(=O)(=O)c1ccc(C(=O)Nc2ccc(Cl)c(-c3ccccn3)c2)c(Cl)c1
71.7 µM: TGI [5]
76.9 µM: TGI [22]
50 µM: TGI [16]
> 70.8 µM: TGI [28]
61.2 µM: TGI [37]
58.3 µM: TGI [12]
> 82.8 µM: TGI [27]
51.9 µM: TGI [47]
> 80.3 µM: TGI [9]
> 29.3 µM: TGI [14]
46.7 µM: TGI [6]
61.5 µM: TGI [43]
> 83 µM: TGI [21]
46.3 µM: TGI [13]
99.4 µM: TGI [4]
> 71.7 µM: TGI [34]
79 µM: TGI [30]
80.3 µM: TGI [7]
> 70.3 µM: TGI [41]
64.3 µM: TGI [45]
inactive: GI50 [1] 46 µM | GI50 [2] 61.9 µM | GI50 [3] 48.3 µM | GI50 [4] 45.7 µM | GI50 [5] 25.3 µM | GI50 [6] 22.2 µM | GI50 [7] 32.3 µM | GI50 [8] 44.4 µM | GI50 [9] 35.4 µM | GI50 [10] > 65.9 µM | GI50 [11] > 52.9 µM | GI50 [12] 22.8 µM | GI50 [13] 21.8 µM | GI50 [14] 10.8 µM | GI50 [15] 27.6 µM | GI50 [16] 19.9 µM | GI50 [17] 35.6 µM | GI50 [18] 67.2 µM | GI50 [19] 36.6 µM | GI50 [20] 56.6 µM | GI50 [21] 35.9 µM | GI50 [22] 25.1 µM | GI50 [23] 41.1 µM | GI50 [24] 40.3 µM | GI50 [25] 33.8 µM | GI50 [26] > 53.4 µM | GI50 [27] 35.3 µM | GI50 [28] 26.2 µM | GI50 [29] 47.5 µM | GI50 [30] 31.2 µM | GI50 [31] 18.3 µM | GI50 [32] > 62 µM | GI50 [33] 49.6 µM | GI50 [34] 31.9 µM | GI50 [35] > 64 µM | GI50 [36] 47.2 µM | GI50 [37] 19 µM | GI50 [38] > 64.8 µM | GI50 [39] 19.6 µM | GI50 [40] 55 µM | GI50 [41] 30.8 µM | GI50 [42] > 68.8 µM | GI50 [43] 25 µM | GI50 [44] 45 µM | GI50 [45] 22.9 µM | GI50 [46] 49.5 µM | GI50 [47] 22.7 µM
> 89.7 µM: TGI [33]
> 84 µM: TGI [15]
> 90.5 µM: TGI [3]
> 100 µM: TGI [1] | TGI [2] | TGI [10] | TGI [11] | TGI [18] | TGI [20] | TGI [23] | TGI [24] | TGI [25] | TGI [26] | TGI [29] | TGI [32] | TGI [35] | TGI [36] | TGI [38] | TGI [40] | TGI [42] | TGI [44] | TGI [46]
36.7 µM: TGI [31]
> 83.8 µM: TGI [19]
49.1 µM: TGI [39]
> 81.7 µM: TGI [17]
> 79.3 µM: TGI [8]
